Assay results as given in patent US11707557B2, “Compositions and devices incorporating water-insoluble therapeutic agents and methods of the use thereof” (COOK MEDICAL TECHNOLOGIES LLC, priority 2014, dated 2023).
In brackets after ≈: the same amount, converted by molar mass.

What was measured:
[1] = tested on: mdck-mdr cells; assay: Uptake and transport of docetaxel through MDCK-MDR cell monolayers (transwell); format: in vitro ADME, canine; details: EGCG-docetaxel solution 250 micrograms/ml, 2 hours 37° C., compared to tween or diblock copolymer micellar solutions
Excerpt: (§1) The canine kidney cells, known as MDCK cells, are a non cancer proliferating cell line from canine kidneys. The MDR derivative of these cells is a multi-drug resistant version. The cell lines MDCK and MDCK-MDR are routinely used in the field of drug resistance because in the MDCK cells drugs can accumulate and kill the cells whereas the MDR cells contain drug efflux proteins that efflux the drug so that much higher drug doses are needed to maintain intracellular concentrations sufficient to kill these cells. […]
(§2) MDCK cells were seeded at 10000 cells per transwell membrane (Becton and Dickenson: 0.3 microns, 1 cm diameter) and grown for one week until a continuous monolayer was present. Drug at 250 micrograms/ml (doped with ^3H docetaxel, with carrier (tween, diblock (2000 40-60) PDLLA-mepeg or EGCG), all in hanks buffer, were added to the top well (0.4 ml) with 1.2 ml of hanks buffer in the base well. The wells were incubated at 37° C. for two hours. The transwells were then disassembled and the amount of drug in the base reservoir (transported through the cells) or in the cells (determined by dissolution of the filter after 3 washes in hanks buffer) was determined by liquid scintillation counting.

[2] = Solubility of drug in EGCG or tannic acid solutions (dried down, PBS or water added, 0.22 micron filtered, HPLC or absorbance)
[3] = tested on: Human umbilical vein endothelial cells (HUVEC); assay: Accumulation of docetaxel in HUVEC cells and effect of ultrasound; format: cell-based
Excerpt: Human umbilical vein endothelial cells (HUVEC) and the associated culture media were obtained from Lonza Chemicals (Basel, Switzerland). All cells were applied to 48 well plates in respective media at a concentration of 5000 cells per well or filter. The cells were allowed to equilibrate for 3 days at which time they became approximately 80% confluent. In the 48 well plates, only 24 wells were used per plate so that wells with cells appeared in a checkerboard pattern.
After 2 days, cells were ready for drug incubation with or without ultrasound treatment. The drug solutions (including radiolabelled docetaxel) were applied to the cells (0.5 ml) for 2 hours. Some cells were then ultrasonicated. Briefly, cells received a single 10-s burst of ultrasound at 4 MHz with a power density of 30 W/cm^2.
After ultrasound treatment, the drug solution was immediately removed and all cells were washed three times with 500 ul of HBSS. The amount of docetaxel retained in the cells was determined by lysing the cells in 200 ul of lysis buffer (2% Triton X100 containing 33% DMSO) and quantitation by liquid scintillation counting.

[4] = tested on: MDCK cells; assay: Uptake and transport of docetaxel through MDCK cell monolayers (transwell); format: in vitro ADME, canine; details: EGCG-docetaxel solution 250 micrograms/ml, 2 hours 37° C., compared to tween or diblock copolymer micellar solutions
Excerpt: as §1, §2

[5] = tested on: pig bladder tissue; assay: Uptake of paclitaxel into pig bladder tissue from methoxypolyethylene glycol pastes with EGCG or tannic acid; format: in vitro ADME; details: MEPEG paste with EGCG or tannic acid, 5% drug, urothelial or perivascular side, 2 hours
Experimental: Methods: Fresh ex vivo pig bladders were cut into 2 cm diameter pieces and laid on franz diffusions cells. […] 100 mg of paste was applied to either the perivascular or urothelial side of the bladder tissue and 200 ul of tyrodes buffer pH 7.4 was added. The tissue was incubated for 2 hours at 37° C. and then the diffusion cell was disassembled, the tissue was washed free of remaining paste with excess tyrodes and the tissues were then frozen and cryosectioned for radioactivity counting by liquid scintillation methods.

[6] = Rate of paclitaxel release from EGCG carrier coatings on balloon catheters; format: physicochemical
Experimental: A balloon catheter was inflated and revolved along its horizontal axis. […] The drug/EGCG solution was slowly pipetted onto the balloon using 25 microliters at a time and dried with gentle heat from an electric blowdryer. The catheter assembly was then left overnight to dry. To measure the drug release the catheter was inflated and immersed in 5 ml of PBS-albumin buffer at pH 7.4 for a specific time with mild revolution to create movement. The catheter was then removed and placed in a new tube containing 5 ml of PBS-Album in for the second drug release time point. One ml of dichloromethane was added to each 5 ml of PBS and the tube shaken. The contents were allowed to settle and the top liquid aspirated off. The dichloromemethane was allowed to dry and then the solids were redissolved in 60/40 acetonitrile/water v/v and drug quantitated by HPLC analysis (c18 column, 58/5/37 acetonitrile/methanol/water at 1 ml/min flow rate with detection at 232 nm)

[7] = physchem
[8] = tested on: canine kidney (mdck) cells; assay: Uptake of paclitaxel into mdck cells with or without EGCG; format: cell-based

Compound: CC(=O)O[C@@]12CO[C@@H]1C[C@H](O)[C@@]1(C)C(=O)[C@H](O)C3=C(C)[C@@H](OC(=O)[C@H](O)[C@@H](NC(=O)OC(C)(C)C)c4ccccc4)C[C@@](O)([C@@H](OC(=O)c4ccccc4)[C@H]21)C3(C)C [docetaxel]
- amount of docetaxel accumulated in the cells or transported through the cells [1]: increased
- solubility ([2]; EGCG solution (200 mg/ml) in PBS, aqueous with cosolvent or surfactant or cyclodextrin, thermodynamic from solid, drug concentration solubilised at maximum EGCG concentration, EGCG 200 mg per ml, PBS): ~1500 µg/mL (≈ 1860 µM)
- effect of temperature on solubility ([2]; EGCG solutions): no effect of temperature
- stability of EGCG solutions of the drug ([2]; EGCG solutions, 24 hours): stable over 24 hours
- stability of tannic acid solutions of the drug ([2]; tannic acid concentrations above 150 mg/ml, 24 hrs): not stable over 24 hrs
- effect of temperature on solubility ([2]; tannic acid solutions, 37° C. or 50° C. compared to 23° C.): no effect of temperature
- solubility ([2]; water, free solubility in water, no EGCG or tannic acid): 5 to 7 µg/mL (≈ 6.19 to 8.66 µM)
- effect of ultrasound on uptake of drug into cells ([3]; 10-s burst, 4 MHz, 30 W/cm^2, all formulations): increased the uptake
- uptake of docetaxel from ECGC formulations relative to micellar formulation ([3]; 2 hours incubation): approximately 4 fold
- amount of docetaxel accumulated in the cells or transported through the cells [4]: increased

Compound: CC(=O)O[C@H]1C(=O)[C@@]2(C)[C@H]([C@H](OC(=O)c3ccccc3)[C@]3(O)C[C@H](OC(=O)[C@H](O)[C@@H](NC(=O)c4ccccc4)c4ccccc4)C(C)=C1C3(C)C)[C@]1(OC(C)=O)CO[C@@H]1C[C@@H]2O [paclitaxel]
- penetration of paclitaxel into the bladder tissue [5]: allowed for the penetration
- release of paclitaxel from coated balloon catheter ([6]; EGCG alone (zero percentage diblock copolymer), PBS-albumin pH 7.4): all paclitaxel was released in one minute
- time to complete release of paclitaxel ([6]; EGCG with 10 percentage diblock copolymer): ≤ 2 min
- time to complete release of paclitaxel ([6]; EGCG with 20 percentage diblock copolymer): ≤ 2 min
- release rate of paclitaxel ([6]; EGCG with 50% diblock copolymer): slowed the release rate dramatically
- solubility ([7]; aqueous with cosolvent or surfactant or cyclodextrin, thermodynamic from solid, drug concentration solubilised at maximum EGCG concentration): ~1000 µg/mL (≈ 1170 µM)
- solubility ([7]; aqueous with cosolvent or surfactant or cyclodextrin, thermodynamic from solid, drug concentration solubilised at maximum tannic acid concentration): ~4800 µg/mL (≈ 5620 µM)
- solubility ([7]; water, free solubility in water): 1 µg/mL (≈ 1.17 µM)
- paclitaxel level in cells ([8]; co-incubated with EGCG at 50 microg/ml): ≤ 2000 pg/mg
- paclitaxel level in cells ([8]; paclitaxel alone): approximately 200 pg/mg cellular protein
- increase in drug uptake with EGCG ([8]; with EGCG versus alone): 10 fold
